Experimental data: patent US9365576B2, “Pyrrolopyrrolidinone compounds” (Novartis AG, priority 2012, dated 2016)

target: human MDM2 protein (amino acids 2-188) (Homo sapiens (Human), UniProt Q00987); test: TR-FRET assay, p53-MDM2 Assay 2 (modified); format: binding; conditions: TR-FRET; 0.1 nM MDM2, 0.1 nM Europium labeled streptavidin, Tecan genios Pro reader; read-out: IC50 p53-MDM2 Assay 2
Method in brief: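 IC50 values were curve-fitted from the time-resolved 665/620 nm emission ratio after 340 nm excitation. The assay combined 0.625 nM europium-streptavidin donor with 1.25 nM C-terminally biotinylated MDM2 2–188 (15 min, RT), followed by 15 min with 10 nM Cy5-labeled p53 18–26 acceptor peptide.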

human MDM2 protein (amino acids 2-188), sequence (Q00987 2-188): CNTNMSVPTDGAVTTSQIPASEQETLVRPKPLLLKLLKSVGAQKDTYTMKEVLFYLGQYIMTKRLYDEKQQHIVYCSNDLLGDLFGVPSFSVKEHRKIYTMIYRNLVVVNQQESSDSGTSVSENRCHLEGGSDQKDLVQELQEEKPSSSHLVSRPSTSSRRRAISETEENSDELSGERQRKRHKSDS

Structure (SMILES) | IC50 [nM]
COc1cn(C)c(=O)cc1-c1cc2c(n1C(C)C)C(c1ccc(Cl)cc1)N(c1c(F)c(C)nn1C)C2=O (stereo not shown) [Example 208, 6-(4-Chloro-phenyl)-5-(4-fluoro-2,5-dimethyl-2H-pyrazol-3-yl)-1-isopropyl-2-(5-methoxy-1-methyl-2-oxo-1,2-dihydro-pyridin-4-yl)-5,6-dihydro-1H-pyrrolo[3,4-b]pyrrol-4-one] | 0.861
COc1nc(N)ncc1-c1cc2c(n1C(C)C)C(c1ccc(Cl)cc1)N(c1c(F)c(C)nn1C)C2=O (stereo not shown) [Example 210, 2-(2-Amino-4-methoxy-pyrimidin-5-yl)-6-(4-chloro-phenyl)-5-(4-fluoro-2,5-dimethyl-2H-pyrazol-3-yl)-1-isopropyl-5,6-dihydro-1H-pyrrolo[3,4-b]pyrrol-4-one] | 3.9
COc1ncc(-c2cc3c(n2C(C)C)C(c2ccc(C#N)cc2)N(c2c(F)c(C)nn2C)C3=O)c(OC)n1 (stereo not shown) [Example 211, 4-[2-(2,4-Dimethoxy-pyrimidin-5-yl)-5-(4-fluoro-2,5-dimethyl-2H-pyrazol-3-yl)-1-isopropyl-4-oxo-1,4,5,6-tetrahydro-pyrrolo[3,4-b]pyrrol-6-yl]-benzonitrile] | 1.68
COc1nc(N(C)C)ncc1-c1cc2c(n1C(C)C)C(c1ccc(Cl)cc1F)N(c1cc(C)nn1C)C2=O (stereo not shown) [Example 212, 6-(4-Chloro-2-fluoro-phenyl)-2-(2-dimethylamino-4-methoxy-pyrimidin-5-yl)-5-(2,5-dimethyl-2H-pyrazol-3-yl)-1-isopropyl-5,6-dihydro-1H-pyrrolo[3,4-b]pyrrol-4-one] | 0.769
COc1ncc(-c2cc3c(n2C(C)C)C(c2ccc(Cl)cn2)N(c2cc(Cl)cn(C)c2=O)C3=O)c(OC)n1 (stereo not shown) [Example 213, 5-(5-Chloro-1-methyl-2-oxo-1,2-dihydro-pyridin-3-yl)-6-(5-chloro-pyridin-2-yl)-2-(2,4-dimethoxy-pyrimidin-5-yl)-1-isopropyl-5,6-dihydro-1H-pyrrolo[3,4-b]pyrrol-4-one] | 14.2
COc1ncc(-c2cc3c(n2C(C)C)C(c2ccc(Cl)cn2)N(c2ccc(F)c(Cl)c2)C3=O)c(OC)n1 (stereo not shown) [Example 214, 5-(3-Chloro-4-fluoro-phenyl)-6-(5-chloro-pyridin-2-yl)-2-(2,4-dimethoxy-pyrimidin-5-yl)-1-isopropyl-5,6-dihydro-1H-pyrrolo[3,4-b]pyrrol-4-one] | 1.89
COc1ncc(-c2cc3c(n2C(C)C)[C@@H](c2ccc(C#N)cc2)N(c2cc(Cl)cn(C)c2=O)C3=O)c(OC)n1 [Example 216, 4-[(R)-5-(5-Chloro-1-methyl-2-oxo-1,2-dihydro-pyridin-3-yl)-2-(2,4-dimethoxy-pyrimidin-5-yl)-1-isopropyl-4-oxo-1,4,5,6-tetrahydro-pyrrolo[3,4-b]pyrrol-6-yl]-benzonitrile] | 883
[2H]C([2H])([2H])Oc1ncc(-c2cc3c(n2C(C)C)[C@@H](c2ccc(Cl)cc2)N(c2cc(Cl)c(=O)n(C)c2)C3=O)c(OC([2H])([2H])[2H])n1 [Example 219, (R)-5-(5-Chloro-1-methyl-6-oxo-1,6-dihydro-pyridin-3-yl)-6-(4-chloro-phenyl)-2-(2,4-d6-dimethoxy-pyrimidin-5-yl)-1-isopropyl-5,6-dihydro-1H-pyrrolo[3,4-b]pyrrol-4-one] | 28.3
COC[C@@H](C)n1c(-c2cnc(N)nc2OC)cc2c1C(c1ccc(C#N)cc1)N(c1ccc(F)c(Cl)c1)C2=O (stereo partly shown) [Example 223] | 0.631
COc1nc(N(C)C)ncc1-c1cc2c(n1C(C)C)[C@@H](c1ccc(Cl)c(F)c1)N(c1cc(Cl)c[nH]c1=O)C2=O [Example 228, (R)-6-(4-Chloro-3-fluoro-phenyl)-5-(5-chloro-2-oxo-1,2-dihydro-pyridin-3-yl)-2-(2-dimethylamino-4-methoxy-pyrimidin-5-yl)-1-isopropyl-5,6-dihydro-1H-pyrrolo[3,4-b]pyrrol-4-one] | 48.7
COC[C@@H](C)n1c(-c2cnc(N)nc2OC)cc2c1[C@@H](c1ccc(Cl)cc1)N(c1ccc(F)c(Cl)c1)C2=O [Example 230, (R)-2-(2-Amino-4-methoxy-pyrimidin-5-yl)-5-(3-chloro-4-fluoro-phenyl)-6-(4-chloro-phenyl)-1-((R)-2-methoxy-1-methyl-ethyl)-5,6-dihydro-1H-pyrrolo[3,4-b]pyrrol-4-one] | 281

Compounds with a lower IC50, results first:

IC50 [nM] | Structure (SMILES)
0.527 | COc1ncc(-c2cc3c(n2C(C)C)[C@H](c2ccc(C#N)cc2)N(c2cc(Cl)cn(C)c2=O)C3=O)c(OC)n1 [Example 215, 4-[(S)-5-(5-Chloro-1-methyl-2-oxo-1,2-dihydro-pyridin-3-yl)-2-(2,4-dimethoxy-Pyrimidin-5-yl)-1-isopropyl-4-oxo-1,4,5,6-tetrahydro-pyrrolo[3,4-b]pyrrol-6-yl]-benzonitrile]
0.509 | COc1nc(N)ncc1-c1cc2c(n1C(C)C)C(c1ccc(Cl)cc1)N(c1cc(Cl)cnc1OC)C2=O (stereo not shown) [Example 206, 2-(2-Amino-4-methoxy-pyrimidin-5-yl)-5-(5-chloro-2-methoxy-pyridin-3-yl)-6-(4-chloro-phenyl)-1-isopropyl-5,6-dihydro-1H-pyrrolo[3,4-b]pyrrol-4-one]
0.362 | COC[C@@H](C)n1c(-c2cnc(N)nc2OC)cc2c1C(c1ccc(Cl)cc1)N(c1ccc(F)c(Cl)c1)C2=O (stereo partly drawn) [Example 224, (R,S)-2-(2-Amino-4-methoxy-pyrimidin-5-yl)-5-(3-chloro-4-fluoro-phenyl)-6-(4-chloro-phenyl)-1-((R)-2-methoxy-1-methyl-ethyl)-5,6-dihydro-1H-pyrrolo[3,4-b]pyrrol-4-one]
0.303 | COC[C@@H](C)n1c(-c2cnc(OC)nc2OC)cc2c1C(c1ccc(C#N)cc1)N(c1ccc(F)c(Cl)c1)C2=O (stereo partly drawn) [Example 222, 4-[(R,S)-5-(3-Chloro-4-fluoro-phenyl)-2-(2,4-dimethoxy-pyrimidin-5-yl)-1-((R)-2-methoxy-1-methyl-ethyl)-4-oxo-1,4,5,6-tetrahydro-pyrrolo[3,4-b]pyrrol-6-yl]-benzonitrile]
0.277 | COC[C@@H](C)n1c(-c2cnc(OC)nc2OC)cc2c1C(c1ccc(Cl)cc1)N(c1cc(Cl)c(=O)n(C)c1)C2=O (stereo partly shown) [Example 225]
0.198 | COc1cn(C)c(=O)cc1-c1cc2c(n1C(C)C)C(c1ccc(Cl)cc1)N(c1cc(Cl)cnc1OC)C2=O (stereo not shown) [Example 205, 5-(5-Chloro-2-methoxy-pyridin-3-yl)-6-(4-chloro-phenyl)-1-isopropyl-2-(5-methoxy-1-methyl-2-oxo-1,2-dihydro-pyridin-4-yl)-5,6-dihydro-1H-pyrrolo[3,4-b]pyrrol-4-one]
0.185 | COc1nc(N(C)C)ncc1-c1cc2c(n1C(C)C)C(c1ccc(C#N)cc1)N(c1cc(Cl)cnc1OC)C2=O (stereo not shown) [Example 207, 4-[5-[5-Chloro-2-methoxy-pyridin-3-yl)-2-(2-dimethylamino-4-methoxy-pyrimidin-5-yl)-1-isopropyl-4-oxo-1,4,5,6-tetrahydro-pyrrolo[3,4-b]pyrrol-6-yl]-benzonitrile]
0.158 | COc1nc(N(C)C)ncc1-c1cc2c(n1C(C)C)C(c1ccc(Cl)cc1)N(c1c(F)c(C)nn1C)C2=O (stereo not shown) [Example 209, 6-(4-Chloro-phenyl)-2-(2-dimethylamino-4-methoxy-pyrimidin-5-yl)-5-(4-fluoro-2,5-dimethyl-2H-pyrazol-3-yl)-1-isopropyl-5,6-dihydro-1H-pyrrolo[3,4-b]pyrrol-4-one]
0.14 | COc1ncc(-c2c(C(=O)O)c3c(n2C(C)C)C(c2ccc(Cl)cc2)N(c2cc(Cl)c(=O)n(C)c2)C3=O)c(OC)n1 (stereo not shown) [Example 221, 5-(5-Chloro-1-methyl-6-oxo-1,6-dihydro-pyridin-3-yl)-6-(4-chloro-phenyl)-2-(2,4-dimethoxy-pyrimidin-5-yl)-1-isopropyl-4-oxo-1,4,5,6-tetrahydro-pyrrolo[3,4-b]pyrrole-3-carboxylic acid]
0.134 | CCOC(=O)c1c2c(n(C(C)C)c1-c1cnc(OC)nc1OC)C(c1ccc(Cl)cc1)N(c1cc(Cl)c(=O)n(C)c1)C2=O (stereo not shown) [Example 220, 5-(5-Chloro-1-methyl-6-oxo-1,6-dihydro-pyridin-3-yl)-6-(4-chloro-phenyl)-2-(2,4-dimethoxy-pyrimidin-5-yl)-1-isopropyl-4-oxo-1,4,5,6-tetrahydro-pyrrolo[3,4-b]pyrrole-3-carboxylic acid ethyl ester]
0.132 | COc1nc(N(C)C)ncc1-c1c(C(=O)O)c2c(n1C(C)C)C(c1ccc(Cl)cc1)N(c1cc(Cl)c(=O)n(C)c1)C2=O (stereo not shown) [Example 226, 5-(5-Chloro-1-methyl-6-oxo-1,6-dihydro-pyridin-3-yl)-6-(4-chloro-phenyl)-2-(2-dimethylamino-4-methoxy-pyrimidin-5-yl)-1-isopropyl-4-oxo-1,4,5,6-tetrahydro-pyrrolo[3,4-b]pyrrole-3-carboxylic acid]
0.106 | [2H]C([2H])([2H])Oc1ncc(-c2cc3c(n2C(C)C)[C@H](c2ccc(Cl)cc2)N(c2cc(Cl)c(=O)n(C)c2)C3=O)c(OC([2H])([2H])[2H])n1 [Example 218, (S)-5-(5-Chloro-1-methyl-6-oxo-1,6-dihydro-pyridin-3-yl)-6-(4-chloro-phenyl)-2-(2,4-d6-dimethoxy-pyrimidin-5-yl)-1-isopropyl-5,6-dihydro-1H-pyrrolo[3,4-b]pyrrol-4-one]
0.078 | COC[C@@H](C)n1c(-c2cnc(N)nc2OC)cc2c1[C@H](c1ccc(Cl)cc1)N(c1ccc(F)c(Cl)c1)C2=O [Example 229]
0.071 | COc1nc(N(C)C)ncc1-c1cc2c(n1C(C)C)[C@H](c1ccc(Cl)c(F)c1)N(c1cc(Cl)c[nH]c1=O)C2=O [Example 227, (S)-6-(4-Chloro-3-fluoro-phenyl)-5-(5-chloro-2-oxo-1,2-dihydro-pyridin-3-yl)-2-(2-dimethylamino-4-methoxy-pyrimidin-5-yl)-1-isopropyl-5,6-dihydro-1H-pyrrolo[3,4-b]pyrrol-4-one]
